One series has as its system BetaCoV/Wuhan/WIV04/2019. As to conditions: against BetaCoV/Wuhan/WIV04/2019; cited from earlier work.
A further series concerns SARS. As to conditions: cited from earlier work.
The test system of series [1] is SARS-CoV-2 (hCoV-19/Australia/VIC01/2020). The format is cell-based.
Series [2] deals with SARS-CoV-2 2019-nCoV/USA-WAl/2020. Briefly: Antiviral activity in primary human bronchial epithelial cells (HBEpC). It counts as cell-based. As to conditions: highest concentration tested (600 µg/mL), added 1 hour prior to infection, day 4.
The test system of series [3] is SARS-CoV-2 (2019-nCoV/USA-WA1/2020). Briefly: microbe, parasite or virus in culture. The format is cell-based. To be noted: for EC50: read-out: EC50.
Series [4] has as its system SARS-CoV-2 hCoV-19/Australia/VIC01/2020. Briefly: microbe, parasite or virus in culture. The format is cell-based. To be noted: Severe acute respiratory syndrome coronavirus 2, 96 h; positive control; Vero cells; […]; CPE by MTT after 4 days; read-out: EC50.

Counter-ions that a name gives are not always drawn. Like-named read-outs stand apart in the source and are kept apart here.

As a reminder, the EC50 is the concentration that produces a half-maximal response. What is called IC50 is the midpoint of a concentration-inhibition curve.

For `CCN(CC)CCCC(C)Nc1ccnc2cc(Cl)ccc12` (centres unmarked) [chloroquine], the EC50 in the series with BetaCoV/Wuhan/WIV04/2019 is 1.13 µM. Besides, the IC50 with SARS (against SARS) was 8 µM. In the series with SARS, the CC50 was 261 µM.

As for `CCN(CCO)CCCC(C)Nc1ccnc2cc(Cl)ccc12` (centres unmarked) [Hydroxychloroquine sulfate], in series [1] (15 µM, any time point), the “effect on virus replication” value was “no discernible effect”.

Regarding iota-carrageenan [reference compound], in series [2], the “reduction of infection by nucleocapsid ELISA” value is reported as 17% and the “reduction of infection in the plaque assay” value is listed as 21%.

With `CCC(CC)COC(=O)[C@H](C)N[P@](=O)(OC[C@H]1O[C@@](C#N)(c2ccc3c(N)ncnn23)[C@H](O)[C@@H]1O)Oc1ccccc1` [Remdesivir, reference compound], the EC50 in series [3] (Severe acute respiratory syndrome coronavirus 2, Calu-3) amounted to 0.589 µM; in series [3] (Severe acute respiratory syndrome coronavirus 2, Vero C1008) it was 0.791 µM; in series [4], 5.05 µM. For the same compound, the “activity in the plaque assay” value in series [3] (positive control) was “active”. For the same compound, the “inhibition of virus replication” value in series [1] is given as less than 1 log10 TCID50.

The values above are taken from patent US20230330134A1, “METHOD OF PROPHYLAXIS OF CORONAVIRUS AND/OR RESPIRATORY SYNCYTIAL VIRUS INFECTION” (Starpharma Pty Ltd., priority 2020, published 2023).
